{"source": "paper PMC11714206", "about": "“Massively Parallel Screening of Toll/Interleukin‐1 Receptor (TIR)‐Derived Peptides Reveals Multiple Toll‐Like Receptors (TLRs)‐Targeting Immunomodulatory Peptides” (Advanced Science, 2024)", "target": "T1, MyD88^TIR (Homo sapiens, UniProt Q99836)", "T1 construct": "MyD88 (residues 148–296); 6xHis; made in house; host or cells: E. coli BL21 (DE3)", "T1 sequence (Q99836 148-296)": "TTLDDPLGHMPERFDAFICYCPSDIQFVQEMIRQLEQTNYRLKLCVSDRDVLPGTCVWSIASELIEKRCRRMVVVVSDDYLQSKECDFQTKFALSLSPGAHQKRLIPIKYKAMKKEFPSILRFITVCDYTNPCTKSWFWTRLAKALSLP", "experiment": "T‐Surf phage library (P8 and P3) selection against MyD88^TIR, four rounds, NGS read counts", "type": "binding", "conditions": "for P3_MyD88 Rank (after) / P3_MyD88 Rank (before): P3 library; for P8_MyD88 Rank (after) / P8_MyD88 Rank (before): P8 library; for Population: 4th round of selection against MyD88 TIR, share of NGS reads", "outline": "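P8 and P3 T‐Surf libraries panned against plate-coated TIR domains (5 µg mL^−1), 1 h binding at RT, acid elution and TG1/helper-phage amplification per round. After four rounds, pools were PCR-barcoded and sequenced (NovaSeq, 100 bp paired-end, Phred ≥30); peptides ranked by read counts.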", "key": {"[1]": {"conditions": "P8_MyD88: rank by NGS read count after grouping"}, "[2]": {"conditions": "P8_MyD88: rank by NGS read count before grouping"}, "[3]": {"conditions": "selection against MyD88, rank after grouping"}, "[4]": {"conditions": "selection against MyD88, rank before grouping"}, "[5]": {"conditions": "P8_MyD88 pool: P8 T-Surf phage library"}, "[6]": {"conditions": "4R selection against MyD88, rank after grouping"}, "[7]": {"conditions": "4R selection against MyD88, rank before grouping"}, "[8]": {"conditions": "selection against MyD88 TIR, rank by count after grouping"}, "[9]": {"conditions": "selection against MyD88 TIR, rank by count before grouping"}, "[10]": {"conditions": "selection against MyD88, rank by count after grouping"}, "[11]": {"conditions": "selection against MyD88, rank by count before grouping"}, "[12]": {"conditions": "P3_MyD88 pool: P3 T-Surf phage library"}, "[13]": {"conditions": "P8_MyD88: rank by count after grouping"}, "[14]": {"conditions": "P8_MyD88: rank by count before grouping"}}, "data": [{"sequence": "EPQDLDWLYERLVSLF", "values": [{"measurement": "Rank (after)", "setting": "[1]", "result": 1009}, {"measurement": "Rank (before)", "setting": "[2]", "result": 3148}]}, {"sequence": "YYLDPSHLRKHSGEIG", "values": [{"measurement": "P3_MyD88 Rank (after)", "setting": "[3]", "result": 558}, {"measurement": "P3_MyD88 Rank (before)", "setting": "[4]", "result": 1464}]}, {"sequence": "WDCASNMEQFWDLPYY", "values": [{"measurement": "Rank (after)", "setting": "[1]", "result": 920}, {"measurement": "Rank (before)", "setting": "[2]", "result": 1639}]}, {"sequence": "YAASPRLFGEPVKIVG", "values": [{"measurement": "P8_MyD88 Rank (after)", "setting": "[3]", "result": 497}, {"measurement": "P8_MyD88 Rank (before)", "setting": "[4]", "result": 1755}]}, {"sequence": "ELDFSHFWLFDGHAGGEA", "values": [{"measurement": "Population", "setting": "[5]", "result": 0.02, "unit": "%"}]}, {"sequence": "FLSYRALEKRFGRLA", "values": [{"measurement": "P3_MyD88 Rank (after)", "setting": "[6]", "result": 625}, {"measurement": "P3_MyD88 Rank (before)", "setting": "[7]", "result": 1351}]}, {"sequence": "DPQDQDRFYERLVSLF", "values": [{"measurement": "P8_MyD88 Rank (after)", "setting": "[6]", "result": 591}, {"measurement": "P8_MyD88 Rank (before)", "setting": "[7]", "result": 2968}]}, {"sequence": "WFLFTVRSAIYAMSPA", "values": [{"measurement": "Rank (after)", "setting": "[1]", "result": 921}, {"measurement": "Rank (before)", "setting": "[2]", "result": 1358}]}, {"sequence": "TSHLHRAWRLNELRTY", "values": [{"measurement": "P3_MyD88 Rank (after)", "setting": "[8]", "result": 284}, {"measurement": "P3_MyD88 Rank (before)", "setting": "[9]", "result": 3294}]}, {"sequence": "YELDFSHFWLFEARGDA", "values": [{"measurement": "P8_MyD88 Rank (after)", "setting": "[6]", "result": 636}, {"measurement": "P8_MyD88 Rank (before)", "setting": "[7]", "result": 1944}]}, {"sequence": "SRDYASSPWALDELVL", "values": [{"measurement": "Rank (after)", "setting": "P3_MyD88: rank by count after grouping", "result": 146}, {"measurement": "Rank (before)", "setting": "P3_MyD88: rank by count before grouping", "result": 3095}]}, {"sequence": "YPQDLQWLYERLGSLI", "values": [{"measurement": "Rank (after)", "setting": "[1]", "result": 892}, {"measurement": "Rank (before)", "setting": "[2]", "result": 2104}]}, {"sequence": "DPQDLDCFDERLGSRV", "values": [{"measurement": "P8_MyD88 Rank (after)", "setting": "[6]", "result": 627}, {"measurement": "P8_MyD88 Rank (before)", "setting": "[7]", "result": 2697}]}, {"sequence": "YLRADELLKILYANETM", "values": [{"measurement": "Rank (after)", "setting": "[1]", "result": 870}, {"measurement": "Rank (before)", "setting": "[2]", "result": 2072}]}, {"sequence": "DPQTLQSFYERLVSLI", "values": [{"measurement": "P8_MyD88 Rank (after)", "setting": "[3]", "result": 557}, {"measurement": "P8_MyD88 Rank (before)", "setting": "[4]", "result": 3027}]}, {"sequence": "DPQDLDLFYERLVRLF", "values": [{"measurement": "P8_MyD88 Rank (after)", "setting": "[8]", "result": 261}, {"measurement": "P8_MyD88 Rank (before)", "setting": "[9]", "result": 2737}]}, {"sequence": "DWEWEYLRPNLEGTAG", "values": [{"measurement": "P8_MyD88 Rank (after)", "setting": "[10]", "result": 768}, {"measurement": "P8_MyD88 Rank (before)", "setting": "[11]", "result": 2488}]}, {"sequence": "WALDELWHILRALGLF", "values": [{"measurement": "P8_MyD88 Rank (after)", "setting": "[6]", "result": 631}, {"measurement": "P8_MyD88 Rank (before)", "setting": "[7]", "result": 1426}]}, {"sequence": "NYAASEWALRELIQIM", "values": [{"measurement": "P8_MyD88 Rank (after)", "setting": "[3]", "result": 528}, {"measurement": "P8_MyD88 Rank (before)", "setting": "[4]", "result": 3837}]}, {"sequence": "SSFREGLWRLLELRKK", "values": [{"measurement": "Population", "setting": "[12]", "result": 0.0032, "unit": "%"}]}, {"sequence": "DWVWDYLLPIWKAQR", "values": [{"measurement": "P8_MyD88 Rank (after)", "setting": "[10]", "result": 704}, {"measurement": "P8_MyD88 Rank (before)", "setting": "[11]", "result": 2449}]}, {"sequence": "DSVCLDRLLYSLHVTE", "values": [{"measurement": "P8_MyD88 Rank (after)", "setting": "[6]", "result": 582}, {"measurement": "P8_MyD88 Rank (before)", "setting": "[7]", "result": 3130}]}, {"sequence": "QDLGWFYERLFSQM", "values": [{"measurement": "P8_MyD88 Rank (after)", "setting": "[10]", "result": 735}, {"measurement": "P8_MyD88 Rank (before)", "setting": "[11]", "result": 3564}]}, {"sequence": "PSDVRKKTGSLAKAFA", "values": [{"measurement": "P3_MyD88 Rank (after)", "setting": "[8]", "result": 285}, {"measurement": "P3_MyD88 Rank (before)", "setting": "[9]", "result": 2735}]}, {"sequence": "EWGDPYFWSKLRYAM", "values": [{"measurement": "P3_MyD88 Rank (after)", "setting": "[10]", "result": 695}, {"measurement": "P3_MyD88 Rank (before)", "setting": "[11]", "result": 2125}]}, {"sequence": "APQDLEWFYERLVSLIL", "values": [{"measurement": "Rank (after)", "setting": "[13]", "result": 431}, {"measurement": "Rank (before)", "setting": "[14]", "result": 2322}]}, {"sequence": "YTSLTNRGFLIFRDND", "values": [{"measurement": "P3_MyD88 Rank (after)", "setting": "[6]", "result": 596}, {"measurement": "P3_MyD88 Rank (before)", "setting": "[7]", "result": 1624}]}, {"sequence": "WALNELLEIMQAKRDL", "values": [{"measurement": "P8_MyD88 Rank (after)", "setting": "[8]", "result": 258}, {"measurement": "P8_MyD88 Rank (before)", "setting": "[9]", "result": 429}]}, {"sequence": "DLVWDYLLPNLEGPAG", "values": [{"measurement": "Population", "setting": "[5]", "result": 0.00886, "unit": "%"}]}, {"sequence": "SSFREGLWRLLELGKK", "values": [{"measurement": "Population", "setting": "[12]", "result": 0.00437, "unit": "%"}]}, {"sequence": "DHHLDLSRGKAIKPAILG", "values": [{"measurement": "P3_MyD88 Rank (after)", "setting": "[8]", "result": 236}, {"measurement": "P3_MyD88 Rank (before)", "setting": "[9]", "result": 1997}]}, {"sequence": "NELVHVCFSNENSQVG", "values": [{"measurement": "P3_MyD88 Rank (after)", "setting": "[8]", "result": 275}, {"measurement": "P3_MyD88 Rank (before)", "setting": "[9]", "result": 3406}]}, {"sequence": "SRDYATSPWALDELLR", "values": [{"measurement": "P3_MyD88 Rank (after)", "setting": "[6]", "result": 627}, {"measurement": "P3_MyD88 Rank (before)", "setting": "[7]", "result": 3103}]}, {"sequence": "DPQDLQWFYERLVSLL", "values": [{"measurement": "Population", "setting": "[5]", "result": 0.03, "unit": "%"}]}, {"sequence": "DPQDLDCFYERLVSLL", "values": [{"measurement": "Rank (after)", "setting": "[13]", "result": 169}, {"measurement": "Rank (before)", "setting": "[14]", "result": 1082}]}, {"sequence": "DPQLLDWLYERLRRPV", "values": [{"measurement": "Rank (after)", "setting": "[1]", "result": 999}, {"measurement": "Rank (before)", "setting": "[2]", "result": 3024}]}, {"sequence": "NQWRNALTAAANLSGC", "values": [{"measurement": "Population", "setting": "[12]", "result": 0.00291, "unit": "%"}]}, {"sequence": "PSEVRKQTGSLAKALRRNCC", "values": [{"measurement": "P3_MyD88 Rank (after)", "setting": "[8]", "result": 254}, {"measurement": "P3_MyD88 Rank (before)", "setting": "[9]", "result": 1130}]}, {"sequence": "DVLYYALIDAGIRVFR", "values": [{"measurement": "Rank (after)", "setting": "[13]", "result": 182}, {"measurement": "Rank (before)", "setting": "[14]", "result": 216}]}]}
